Test results taken from ChEMBL document CHEMBL4396973, “Design and development of a series of borocycles as selective, covalent kallikrein 5 inhibitors” (Bioorg Med Chem Lett, 2019).

What was measured:
Kallikrein-7 = Kallikrein-7 (Homo sapiens, UniProt P49862); experiment: Inhibition of recombinant human C-terminal 10-His-tagged KLK7 (Glu23 to His252 residues) expressed in mouse NS0 cells using 5-FAM-E-A-L-Y-L-V-S-G-C(5-TAMRA) as substrate incubated for 40 mins by FLINT assay
[1] = biological target: T1, Suppressor of tumorigenicity 14 protein (Homo sapiens, UniProt Q9Y5Y6); experiment: Inhibition of recombinant human N-terminal Met and 6-His-tagged matriptase (G596 to V855 residues) expressed in Escherichia coli using Boc-QAR-AMC as substrate incubated for 40 mins by FLINT assay
T1 sequence (Q9Y5Y6 whole entry): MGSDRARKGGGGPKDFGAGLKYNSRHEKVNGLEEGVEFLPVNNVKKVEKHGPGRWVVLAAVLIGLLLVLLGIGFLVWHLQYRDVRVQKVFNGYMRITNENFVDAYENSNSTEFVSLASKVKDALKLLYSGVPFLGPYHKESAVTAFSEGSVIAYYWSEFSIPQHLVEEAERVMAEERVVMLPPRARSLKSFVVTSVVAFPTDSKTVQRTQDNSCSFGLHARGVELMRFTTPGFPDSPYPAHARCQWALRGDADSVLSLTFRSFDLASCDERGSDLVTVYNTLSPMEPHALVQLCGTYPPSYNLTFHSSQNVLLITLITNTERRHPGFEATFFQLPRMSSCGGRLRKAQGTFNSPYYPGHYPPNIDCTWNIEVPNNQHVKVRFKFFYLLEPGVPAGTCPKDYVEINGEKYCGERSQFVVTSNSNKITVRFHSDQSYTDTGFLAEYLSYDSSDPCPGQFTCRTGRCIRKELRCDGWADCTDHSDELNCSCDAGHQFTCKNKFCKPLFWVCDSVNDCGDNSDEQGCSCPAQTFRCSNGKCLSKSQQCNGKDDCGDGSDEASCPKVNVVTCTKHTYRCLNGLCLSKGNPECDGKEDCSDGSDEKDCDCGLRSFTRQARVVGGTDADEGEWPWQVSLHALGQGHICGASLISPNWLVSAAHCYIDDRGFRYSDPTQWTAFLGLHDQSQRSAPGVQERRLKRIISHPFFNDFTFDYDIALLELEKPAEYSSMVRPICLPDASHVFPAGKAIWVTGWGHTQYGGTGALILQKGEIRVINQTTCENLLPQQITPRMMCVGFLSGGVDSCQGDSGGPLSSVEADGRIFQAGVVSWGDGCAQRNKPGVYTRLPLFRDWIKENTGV

Neutrophil elastase = biological target: T2, Neutrophil elastase (Homo sapiens, UniProt P08246); experiment: Inhibition of human neutrophil elastase using MeOSuc-AAPV-AMC as substrate incubated for 40 mins by FLINT assay
T2 sequence (P08246 whole entry): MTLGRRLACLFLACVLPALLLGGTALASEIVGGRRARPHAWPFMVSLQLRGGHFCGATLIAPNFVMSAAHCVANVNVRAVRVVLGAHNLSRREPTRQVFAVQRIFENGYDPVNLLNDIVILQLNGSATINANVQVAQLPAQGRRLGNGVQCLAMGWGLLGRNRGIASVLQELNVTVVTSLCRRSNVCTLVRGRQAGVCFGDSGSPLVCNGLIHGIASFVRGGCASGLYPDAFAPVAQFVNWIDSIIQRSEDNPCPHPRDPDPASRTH

Sequence of Kallikrein-7 (P49862 whole entry, the tested form may be a part): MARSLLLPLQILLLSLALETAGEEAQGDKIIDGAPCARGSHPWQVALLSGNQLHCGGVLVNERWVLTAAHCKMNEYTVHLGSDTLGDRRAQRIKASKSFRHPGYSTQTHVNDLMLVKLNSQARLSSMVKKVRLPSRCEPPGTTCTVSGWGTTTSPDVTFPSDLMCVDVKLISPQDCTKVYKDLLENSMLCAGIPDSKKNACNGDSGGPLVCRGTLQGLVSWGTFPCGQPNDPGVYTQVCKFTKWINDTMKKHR

IC50 (Kallikrein-7): 79.4 µM | IC50 [1]: 1.26 µM | IC50 (Neutrophil elastase): > 100 µM
Compound: Cl.N=C(N)c1ccc([C@H]2Cc3ccc(C(F)(F)F)cc3B(O)O2)cc1OCc1cccnc1
